Consider 18 compounds from patent publication US20250018068A1, “4H-IMIDAZO[1,5-B]PYRAZOLE DERIVATIVES FOR DIAGNOSIS” (AC IMMUNE SA, priority 2021, published 2025).

In the test the target is T1, PD brain-derived alpha-synuclein aggregates (Homo sapiens, UniProt P37840).
T1 construct: from tissue; host or cells: human PD donor brain, sarkosyl-insoluble pellet
The test is described as follows: Micro-radiobinding competition assay for the determination of binding affinity. As to conditions: for inhibition at 0.1 µM: read-out: Micro-radiobinding competition assay Competition at 100 nM (%); for inhibition at 1 µM: read-out: Micro-radiobinding competition assay Competition at 1 μM (%); for pKi: * = mean of two independent experiments, two donors. The procedure: The procedure was adapted from the protocol described in Spillantini et al., 1998. Frozen tissue blocks from PD donors were thawed on ice and homogenized using a glass dounce homogenizer. The homogenate was then centrifuged at 11,000×g (12,700 RPM) in an ultracentrifuge (Beckman, XL100K) for 20 minutes at 4° C. using a pre-cooled 70.1 rotor (Beckman, 342184). Pellets were resuspended in extraction buffer [10 mM Tris-HCl pH 7.4, 10% sucrose, […], 1% protease inhibitor (Calbiochem 539131), 1 mM EGTA, 1% phosphatase inhibitor (Sigma P5726 and P0044)] and centrifuged at 15,000×g (14,800 RPM, a 70.1 Ti rotor) for 20 minutes at 4° C. Pellets were discarded and sarkosyl (20% stock solution, Sigma L7414) was added to the supernatants to a final concentration of 1% at room temperature for one hour. This solution was then centrifuged at 100,000×g (38,000 RPM, 70.1 Ti rotor) for one hour at 4° C. Pellets containing enriched alpha-synuclein aggregates were resuspended in PBS and stored at −80° C. until use.
PD brain-derived alpha-synuclein aggregates were spotted onto microarray slides. The slides were incubated with [^3H]-alpha-synuclein reference at 6 nM or 20 nM and the example compounds (non-radiolabelled) at 1 μM and 100 nM. In some cases, the non-radiolabelled example compounds were further assessed for a range of different concentrations, varying from 0.05 nM to 2 μM. After incubation, slides were washed and scanned by a real-time autoradiography system (BeaQuant, ai4R). Quantification of the signal was performed by using the Beamage image analysis software (ai4R). Non-specific signal was determined with an excess of non-radiolabelled Example-1 (2 μM) and specific binding was calculated by subtracting the non-specific signal from the total signal. Competition was calculated as percent, where 0% was defined as the specific binding in the presence of vehicle and 100% as the values obtained in the presence of excess of the non-radiolabelled Example-1. Ki values were calculated in GraphPad Prism7 by applying a nonlinear regression curve fit using a one site, specific binding model. All measurements were performed with at least two technical replicates. For compounds tested in more than one experiment, the mean of the replicates or Ki values in independent experiments is reported.
Results: Example compounds were assessed for their potency to compete with the binding of [^3H]-reference alpha-synuclein ligand to PD patient brain-derived alpha-synuclein aggregates. Results of the micro-radiobinding competition assay for the example compounds tested are shown in Table 3 as: % competition at 1 μM and 100 nM.
Table 3: Assessment of binding affinity by micro-radiobinding competition assay on human PD brain-derived alpha-synuclein aggregates. Percent (%) competition over the tritiated [^3H]-Example-1 ligand in the presence of 1 μM and 100 nM of example compounds 1-9. Ki values are also shown for selected example compounds. *, mean of Ki values in two independent experiments using PD brain-derived homogenates from two different donors.

[1] abbreviates: 100 nM non-radiolabelled compound, competition over tritiated [3H]-Example-1 ligand, human PD brain-derived alpha-synuclein aggregates.
Setting [2] is: 1 μM non-radiolabelled compound, competition over tritiated [3H]-Example-1 ligand, human PD brain-derived alpha-synuclein aggregates.
Setting [3] is: human PD brain-derived alpha-synuclein aggregates.

pKi: −log10 of the molar value. Structures can show the parent of a compound that is named as a salt. Where two headings read alike, the source gives them in different places.

On to `O=C1N(c2cncs2)Cc2cc(-c3ccc(N4CCC(F)C4)nc3)nn21` (stereo in doubt) [Example 16, (R)-2-(6-(3-fluoropyrrolidin-1-yl)pyridin-3-yl)-5-(thiazol-5-yl)-4,5-dihydro-6H-imidazo[1,5-b]pyrazol-6-one hydrogen chloride salt], for which, under setting [1], the inhibition at 0.1 µM was 79%. In addition, the inhibition at 1 µM under setting [2] worked out at 98%.

In general, pKi refers to the Ki on a negative log10 scale, so that one unit is a factor of ten. Lower therefore signals a large Ki. In the case of `O=C1N(c2cccnc2)Cc2cc(-c3ccc(N4CC[C@@H](F)C4)nc3)nn21` [Example 2, (R)-2-(6-(3-fluoropyrrolidin-1-yl)pyridin-3-yl)-5-(pyridin-3-yl)-4H-imidazo[1,5-b]pyrazol-6(5H)-one hydrochloride], the inhibition at 0.1 µM under setting [1] was found to be 87%. Moreover, under setting [2], the inhibition at 1 µM is 97%. This compound showed a pKi under setting [3] of 7.34.

`O=C1N(c2ccccn2)Cc2cc(-c3ccc(N4CC[C@@H](F)C4)nc3)nn21` [Example 3, (R)-2-(6-(3-fluoropyrrolidin-1-yl)pyridin-3-yl)-5-(pyridin-2-yl)-4H-imidazo[1,5-b]pyrazol-6(5H)-one]: the inhibition at 0.1 µM under setting [1] was 74%. Moreover, under setting [2], the inhibition at 1 µM was found to be 89%.

Take `O=C1N(c2ccccn2)Cc2cc(-c3ccc(N4CC[C@H](F)C4)nc3)nn21` [Example 4, (S)-2-(6-(3-fluoropyrrolidin-1-yl)pyridin-3-yl)-5-(pyridin-2-yl)-4H-imidazo[1,5-b]pyrazol-6(5H)-one hydrochloride]: under setting [1], the inhibition at 0.1 µM worked out at 94%. Moreover, under setting [2], the inhibition at 1 µM stood at 100%.

Regarding `O=C1N(c2ccncc2)Cc2cc(-c3ccc(N4CC[C@H](F)C4)nc3)nn21` [Example 5, (S)-2-(6-(3-fluoropyrrolidin-1-yl)pyridin-3-yl)-5-(pyridin-4-yl)-4H-imidazo[1,5-b]pyrazol-6(5H)-one hydrochloride], under setting [1], the inhibition at 0.1 µM came to 59%. The inhibition at 1 µM under setting [2] was 89%. Besides, the negative logarithm of the Ki (pKi) under setting [3] is 7.59.

Take `Cn1cc(N2Cc3cc(-c4ccc(N5CC[C@H](F)C5)nc4)nn3C2=O)cn1` [Example 6, (S)-2-(6-(3-fluoropyrrolidin-1-yl)pyridin-3-yl)-5-(1-methyl-1H-pyrazol-4-yl)-4H-imidazo[1,5-b]pyrazol-6(5H)-one]: the inhibition at 0.1 µM is 43% and the inhibition at 1 µM was 93%.

On to `Cn1ccc(N2Cc3cc(-c4ccc(N5CC[C@H](F)C5)nc4)nn3C2=O)n1` [Example 7, (S)-2-(6-(3-fluoropyrrolidin-1-yl)pyridin-3-yl)-5-(1-methyl-1H-pyrazol-3-yl)-4H-imidazo[1,5-b]pyrazol-6(5H)-one hydrochloride], for which, under setting [1], the inhibition at 0.1 µM was found to be 73%. In addition, the inhibition at 1 µM under setting [2] worked out at 96%.

On to `O=C1N(c2cnn(CCF)c2)Cc2cc(-c3ccc(N4CCCC4)nc3)nn21` [Example 8, 5-(1-(2-fluoroethyl)-1H-pyrazol-4-yl)-2-(6-(pyrrolidin-1-yl)pyridin-3-yl)-4H-imidazo[1,5-b]pyrazol-6(5H)-one], for which the inhibition at 0.1 µM was 27% and the inhibition at 1 µM turned out to be 73%. Under setting [3], this compound showed a pKi of 7.19.

As for `O=C1N(c2cccnc2)Cc2cc(-c3ccc(Br)nc3)nn21` [Example 9, 2-(6-bromopyridin-3-yl)-5-(pyridin-3-yl)-4H-imidazo[1,5-b]pyrazol-6(5H)-one], the inhibition at 0.1 µM was found to be 45% and the inhibition at 1 µM came out at 62%.

For `O=C1N(c2cccnc2)Cc2cc(-c3cnc(N4CC[C@@H](F)C4)cn3)nn21` [Example 10, (R)-2-(5-(3-fluoropyrrolidin-1-yl)pyrazin-2-yl)-5-(pyridin-3-yl)-4,5-dihydro-6H-imidazo[1,5-b]pyrazol-6-one], under setting [1], the inhibition at 0.1 µM amounted to 72%. Further, the inhibition at 1 µM under setting [2] is 100%.

With `O=C1N(c2cccnc2)Cc2cc(-c3cnc(N4CC[C@H](F)C4)cn3)nn21` [Example 11, (S)-2-(5-(3-fluoropyrrolidin-1-yl)pyrazin-2-yl)-5-(pyridin-3-yl)-4,5-dihydro-6H-imidazo[1,5-b]pyrazol-6-one hydrogen chloride salt], the inhibition at 0.1 µM under setting [1] came out at 25%. For the same compound, the inhibition at 1 µM under setting [2] was found to be 76%. In addition, under setting [3], the negative logarithm of the Ki (pKi) is 6.60.

On to `O=C1N(c2cccnc2)Cc2cc(-c3cnc(N4CC[C@@H](F)C4)c(F)c3)nn21` [Example 12, (R)-2-(5-fluoro-6-(3-fluoropyrrolidin-1-yl)pyridin-3-yl)-5-(pyridin-3-yl)-4,5-dihydro-6H-imidazo[1,5-b]pyrazol-6-one hydrogen chloride salt], for which the inhibition at 0.1 µM under setting [1] stood at 76%. Besides, the inhibition at 1 µM under setting [2] turned out to be 90%. This compound also had a negative logarithm of the Ki (pKi) under setting [3] of 7.47.

As to `O=C1N(c2cccnc2)Cc2cc(-c3cnc(N4CC[C@H](F)C4)c(F)c3)nn21` [Example 13, (S)-2-(5-fluoro-6-(3-fluoropyrrolidin-1-yl)pyridin-3-yl)-5-(pyridin-3-yl)-4,5-dihydro-6H-imidazo[1,5-b]pyrazol-6-one hydrogen chloride salt], the inhibition at 0.1 µM under setting [1] turned out to be 55%. For the same compound, the inhibition at 1 µM under setting [2] is 71%. The compound further had a negative logarithm of the Ki (pKi) under setting [3] of 7.00.

For the compound `Cc1nc(N2CC[C@@H](F)C2)ccc1-c1cc2n(n1)C(=O)N(c1cccnc1)C2` [Example 14, (R)-2-(6-(3-fluoropyrrolidin-1-yl)-2-methylpyridin-3-yl)-5-(pyridin-3-yl)-4,5-dihydro-6H-imidazo[1,5-b]pyrazol-6-one hydrogen chloride salt], the inhibition at 0.1 µM under setting [1] stood at 56%. In addition, the inhibition at 1 µM under setting [2] was 85%. For the same compound, the pKi under setting [3] was 7.10.

`Cc1nc(N2CC[C@H](F)C2)ccc1-c1cc2n(n1)C(=O)N(c1cccnc1)C2` [Example 15, (S)-2-(6-(3-fluoropyrrolidin-1-yl)-2-methylpyridin-3-yl)-5-(pyridin-3-yl)-4,5-dihydro-6H-imidazo[1,5-b]pyrazol-6-onehydrogen chloride salt]: under setting [1], the inhibition at 0.1 µM amounted to 48%. For the same compound, the inhibition at 1 µM under setting [2] amounted to 80%. The pKi under setting [3] is 6.85.

With `O=C1N(c2cncs2)Cc2cc(-c3ccc(N4CC[C@H](F)C4)nc3)nn21` [Example 17, (S)-2-(6-(3-fluoropyrrolidin-1-yl)pyridin-3-yl)-5-(thiazol-5-yl)-4,5-dihydro-6H-imidazo[1,5-b]pyrazol-6-one hydrogen chloride salt], the “Micro-radiobinding competition assay Competition at 100 nM (%)” value under setting [1] is on record as 66%. The “Micro-radiobinding competition assay Competition at 1 μM (%)” value under setting [2] came to 95%.

For the compound `Cc1ncc(N2Cc3cc(-c4ccc(N5CC[C@@H](F)C5)nc4)nn3C2=O)s1` [Example 18, (R)-2-(6-(3-fluoropyrrolidin-1-yl)pyridin-3-yl)-5-(2-methylthiazol-5-yl)-4,5-dihydro-6H-imidazo[1,5-b]pyrazol-6-one hydrogen chloride salt], the inhibition at 0.1 µM under setting [1] was 51%. The inhibition at 1 µM under setting [2] was 83%. For the same compound, the negative-log Ki (pKi) under setting [3] was 7.29.

In the case of `Cc1ncc(N2Cc3cc(-c4ccc(N5CC[C@H](F)C5)nc4)nn3C2=O)s1` [Example 19, (S)-2-(6-(3-fluoropyrrolidin-1-yl)pyridin-3-yl)-5-(2-methylthiazol-5-yl)-4,5-dihydro-6H-imidazo[1,5-b]pyrazol-6-one hydrogen chloride salt], the inhibition at 0.1 µM under setting [1] stood at 41%. The inhibition at 1 µM under setting [2] was 78%. The compound further showed a negative logarithm of the Ki (pKi) under setting [3] of 7.19.
